Measurements: patent US4742045A, “Glycopeptide antibiotics” (SmithKline Beckman Corporation, priority 1986, dated 1988)
Converted amounts (≈) assume the structure as drawn.

Experiments:
Experiment in all cases: standard microtiter assay, minimum inhibitory concentration
Format in all cases: cell-based
Staphylococcus aureus = details: for MIC: Table 5 organism 1 S. aureus
Source text: (§1) Representative results of standard microtiter assays are reported in Tables 1, 2 and 3 which follow, as the minimum inhibitory concentration of antibiotic (μg/ml).
(§2) In Table 1, test organisms 1-13 were different strains of Staphylococcus aureus, and 14-16 were different strains of Staphylococcus epidermidis. In Table 2, test organisms 1-5 were different strains of S. aureus; 6, 8, 12 and 14 were different strains of S. epidermidis; 7 was a Staphylococcus haemolyticus; 9 and 10 were different strains of Streptococcus faecalis; 11 was a Streptococcus pyogenes; and 13 was a Staphylococcus saprophyticus. In Table 3, test organisms 1-3 were different strains of S. aureus; 4 and 6 were different strains of S. epidermidis; 5 was a S. haemolyticus and 7 and 8 were different strains of Streptococcus faecalis. Except where individual components are indicated, the CWI-785 antibiotic employed was the CWI-785 complex; in some cases, HCl salts of the CWI-785 antibiotic were employed.
(§3) The number of strains tested is shown in parentheses below each organism. The average MIC is reported in μg/ml.
(§4) In Table 5 are shown data from standard microtiter assays carried out in a presence of no serum, 50% human serum (hum.) and 50% mouse serum (mse.). The test organisms were 1: S. aureus; 2,4 and 5: different strains of S. epidermidis; 3: S. haemolyticus; 6: S. saprophyticus; 7 and 8: different strains of S. faecalis.

Streptococcus faecalis = system: Streptococcus faecalis
Source text: as §1, §2, §3, §4

[1] = system: Staphylococcus epidermidis
Source text: as §1, §2, §4

[2] = system: Staphylococcus haemolyticus; details: for MIC: Table 5 organism 3 S. haemolyticus
Source text: as §1, §2, §4

[3] = system: Staphylococcus saprophyticus; details: for MIC: Table 5 organism 6 S. saprophyticus
Source text: as §1, §2, §4

Streptococcus pyogenes = details: Table 2 test organism 11, Streptococcus pyogenes
Source text: as §1, §2

CNC(C(=O)NC1C(=O)NC(CC[S+](C)[O-])C(=O)NC2C(=O)NC3C(=O)NC(C(=O)NC(C(=O)O)c4cc(O)cc(O)c4-c4cc3ccc4O)C(OC3CC(N)C(O)C(C)O3)c3ccc(c(Cl)c3)Oc3cc2cc(c3O)Oc2ccc(cc2)C1O)c1ccc(O)cc1 (centres unmarked) [HPB3] gave a minimum inhibitory concentration (Staphylococcus aureus; Table 2 test organism 1, S. aureus strain) of 0.8 µg/mL (≈ 0.612 µM), a minimum inhibitory concentration (Staphylococcus aureus; Table 2 test organism 2, S. aureus strain) of 0.8 µg/mL (≈ 0.612 µM) and a minimum inhibitory concentration (Staphylococcus aureus; Table 2 test organism 3, S. aureus strain) of 0.8 µg/mL (≈ 0.612 µM). The minimum inhibitory concentration (Staphylococcus aureus; Table 2 test organism 4, S. aureus strain) was 0.4 µg/mL (≈ 0.306 µM), the minimum inhibitory concentration (Staphylococcus aureus; Table 2 test organism 5, S. aureus strain) was 0.8 µg/mL (≈ 0.612 µM) and the MIC (Staphylococcus aureus; 50% Hum. Serum) was 0.8 µg/mL (≈ 0.612 µM). It also gave an MIC (Staphylococcus aureus; 50% Mse. Serum) of 0.8 µg/mL (≈ 0.612 µM), an MIC (Staphylococcus aureus; No Serum) of 0.8 µg/mL (≈ 0.612 µM) and a minimum inhibitory concentration (Streptococcus faecalis; Table 2 test organism 9, Streptococcus faecalis strain) of 0.8 µg/mL (≈ 0.612 µM). For the same molecule, the minimum inhibitory concentration (Streptococcus faecalis; Table 2 test organism 10, Streptococcus faecalis strain) was 0.8 µg/mL (≈ 0.612 µM), the MIC (Streptococcus faecalis; Table 5 organism 7 S. faecalis, 50% Hum. Serum) was 3.1 µg/mL (≈ 2.37 µM) and the MIC (Streptococcus faecalis; Table 5 organism 7 S. faecalis, 50% Mse. Serum) was 3.1 µg/mL (≈ 2.37 µM). For the same molecule, the MIC (Streptococcus faecalis; Table 5 organism 7 S. faecalis, No Serum) was 0.8 µg/mL (≈ 0.612 µM), the MIC (Streptococcus faecalis; Table 5 organism 8 S. faecalis, 50% Hum. Serum) was 6.3 µg/mL (≈ 4.82 µM) and the MIC (Streptococcus faecalis; Table 5 organism 8 S. faecalis, 50% Mse. Serum) was 3.1 µg/mL (≈ 2.37 µM). It also gave an MIC (Streptococcus faecalis; Table 5 organism 8 S. faecalis, No Serum) of 0.8 µg/mL (≈ 0.612 µM), a minimum inhibitory concentration ([1]; Table 2 test organism 6, S. epidermidis strain) of 0.8 µg/mL (≈ 0.612 µM) and a minimum inhibitory concentration ([1]; Table 2 test organism 8, S. epidermidis strain) of 0.8 µg/mL (≈ 0.612 µM). For the same molecule, the minimum inhibitory concentration ([1]; Table 2 test organism 12, S. epidermidis strain) was 0.8 µg/mL (≈ 0.612 µM), the minimum inhibitory concentration ([1]; Table 2 test organism 14, S. epidermidis strain) was 0.8 µg/mL (≈ 0.612 µM) and the MIC ([1]; Table 5 organism 2 S. epidermidis, 50% Hum. Serum) was 6.1 µg/mL (≈ 4.66 µM). It also gave an MIC ([1]; Table 5 organism 2 S. epidermidis, 50% Mse. Serum) of 1.6 µg/mL (≈ 1.22 µM), an MIC ([1]; Table 5 organism 2 S. epidermidis, No Serum) of 0.8 µg/mL (≈ 0.612 µM) and an MIC ([1]; Table 5 organism 4 S. epidermidis, 50% Hum. Serum) of 1.6 µg/mL (≈ 1.22 µM). For the same molecule, the MIC ([1]; Table 5 organism 4 S. epidermidis, 50% Mse. Serum) was 1.6 µg/mL (≈ 1.22 µM), the MIC ([1]; Table 5 organism 4 S. epidermidis, No Serum) was 0.8 µg/mL (≈ 0.612 µM) and the MIC ([1]; Table 5 organism 5 S. epidermidis, 50% Hum. Serum) was 0.8 µg/mL (≈ 0.612 µM). For the same molecule, the MIC ([1]; Table 5 organism 5 S. epidermidis, 50% Mse. Serum) was 0.8 µg/mL (≈ 0.612 µM), the MIC ([1]; Table 5 organism 5 S. epidermidis, No Serum) was 0.8 µg/mL (≈ 0.612 µM) and the minimum inhibitory concentration ([2]; Table 2 test organism 7, Staphylococcus haemolyticus) was 1.6 µg/mL (≈ 1.22 µM). It also gave an MIC ([2]; 50% Hum. Serum) of 6.3 µg/mL (≈ 4.82 µM), an MIC ([2]; 50% Mse. Serum) of 3.1 µg/mL (≈ 2.37 µM) and an MIC ([2]; No Serum) of 1.6 µg/mL (≈ 1.22 µM). For the same molecule, the minimum inhibitory concentration ([3]; Table 2 test organism 13, Staphylococcus saprophyticus) was 0.8 µg/mL (≈ 0.612 µM), the MIC ([3]; 50% Hum. Serum) was 3.1 µg/mL (≈ 2.37 µM) and the MIC ([3]; 50% Mse. Serum) was 3.1 µg/mL (≈ 2.37 µM). For the same molecule, the MIC ([3]; No Serum) was 0.8 µg/mL (≈ 0.612 µM) and the minimum inhibitory concentration (Streptococcus pyogenes) was 0.1 µg/mL (≈ 0.0765 µM).
